The structures appear in SMILES notation. Where a name gives a salt, the structure may show the parent alone. Read-outs that look alike come from different tables or passages of the source. A value given as a limit tells only on which side of the number the result lay.

The test system of experiment [1] is mice. In words: p-phenylquinone-induced abdominal writhing test in mice. In kind it is in vivo, mouse (male Charles River, Swiss Strain). To be noted: Mus musculus, sc, 20 min; subcutaneous; calculated as the free base; 20 min pretreatment, p-phenylquinone 2 mg/Kg i.p. The protocol:
(A) P-phenylquinone-induced abdominal writhing test in mice
The methodology employed is based on that described by Sigmund et al, Proc. Soc. Exptl. Biol. 95, 729/1957, modified by Milne and Twomey, Agents and Actions, 10, 31/1980.
Male Charles River mice (Swiss Strain), 25-36g body weight, were used. Animals were allowed food and water ad libitum and were randomized into groups of 10 prior to experimentation. Test compounds were dissolved in either distilled water or distilled water plus 0.1 M AMS, and administered by the subcutaneous route in a final volume of 10 ml/Kg. Control animals received 10 ml/Kg of the appropriate vehicle alone. Following a pretreatment period of 20 min., mice were injected intraperitoneally with p-phenylquinone, 2 mg/Kg at 37° C. in a final volume of […]. […] During this period the number of abdominal writhing responses per animal were recorded where writhing consists of an intermittent contraction of the abdomen associated with hind leg extension.
The degree of antinociceptive protection afforded by the test compound was determined as the mean number of writhing responses observed in the treated group (T) expressed as a percentage of the mean number of writhing responses in the control group (C) according to the following formula:
[1-(T/C]×100%=% graded protection

For experiment [2], the system named is mice. Kind of experiment: tail-flick test in mice. As to conditions: subcutaneous, calculated as the free base, 30 min pretreatment; for ED50: Mus musculus, sc, 0.5 h; for MOUSE TAIL-FLICK ED50: 30 min. In kind it is in vivo, mouse (male Charles River, Swiss Strain). The protocol: (B) Tail-flick test in mice
The methodology employed is based on that described by D'Amour and Smith, J. Pharmacol. Exp. Ther. 72, 74/1941.
Male Charles River mice (Swiss Strain), 22-34g body weight were used. Animals were allowed food and water ad libitum and were randomized into groups of 10 prior to experimentation.
Test compounds were dissolved in either distilled water or distilled water plus 0.1 M AMS and administered by the subcutaneous route in a final volume of 10 ml/Kg. Control animals received 10 ml/kg of the appropriate vehicle alone. Following a pretreatment period of 30 min., the mice were again placed under the heat source and the reaction tine re-determined.
Percentage quantal protection was determined as the number of mice in which the reaction time was doubled compared to pretreatment values, expressed as a percentage of the total number of mice in the group.

The target in experiment [3] is T1, MU opiate receptor (Cavia porcellus, UniProt A0ACM8Q262).
T1 construct: 3H-DAGO displacement
T1 sequence (A0ACM8Q262 1-400): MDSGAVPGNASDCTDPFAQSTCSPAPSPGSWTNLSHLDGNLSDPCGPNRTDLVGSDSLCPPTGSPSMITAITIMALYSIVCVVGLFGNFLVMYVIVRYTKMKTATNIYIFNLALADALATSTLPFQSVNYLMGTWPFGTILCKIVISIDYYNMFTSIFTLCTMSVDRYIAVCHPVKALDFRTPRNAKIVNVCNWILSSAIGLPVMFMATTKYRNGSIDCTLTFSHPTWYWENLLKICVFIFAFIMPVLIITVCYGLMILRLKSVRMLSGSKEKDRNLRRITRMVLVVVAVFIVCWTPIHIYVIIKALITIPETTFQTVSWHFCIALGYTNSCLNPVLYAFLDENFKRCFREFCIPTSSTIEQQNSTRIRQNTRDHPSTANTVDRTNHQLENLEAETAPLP
In words: opiate receptors binding, MU (3H-DAGO, guinea pig brain homogenate). The protocol:
Radio receptor binding to μ and K sites is performed on fresh guinea pig brain homogenate prepared according to Kosterlitz.
(§1) Whole brain without cerebellum is homogenized in 50 mM, Tris-buffer (pH 7.4 at 0° C.) and centrifuged at 49,000×g×10 min.
The pellet is then resuspended in the same buffer, incubated at 37° C. for 45 min. and centrifuged again. 1.9ml of the final homogenate (1:100 in Tris-pH 7.4, 0° C.) is used for the binding assay.
The filters are then dryed, solubilized in Filtercount and the radioactivity monitored. Non specific binding
is determined in the presence of 10-6M Naloxone.

Experiment [4] has as its target T2, KAPPA opiate receptor (Cavia porcellus, UniProt P41144).
T2 construct: fresh guinea pig brain homogenate; from tissue; host or cells: guinea pig whole brain without cerebellum, fresh homogenate
In words: opiate receptors binding, KAPPA (3H-Ethyl Ketocyclazocine, guinea pig brain homogenate). To be noted: fresh guinea pig brain homogenate, 3H-Ethyl Ketocyclazocine with 100nM DAGO and 100nM DADLE, 25° C., 40 min; read-out: OPIATE RECEPTORS BINDING KAPPA Ki. The protocol:
Radio receptor binding to μ and K sites is performed on fresh guinea pig brain homogenate prepared according to Kosterlitz. (1981).
as §1
The pellet is then resuspended in the same buffer, incubated at 37° C. for 45 min. and centrifuged again. 1.9ml of the final homogenate (1:100 in Tris-pH 7.4, 0° C.) is used for the binding assay. Binding to […] sites (Magnan J., 1982) 1 3H [D-Ala2, MePhe4, Gly-o15]Enkephalin (3H-DAGO), an
is determined in the presence of 10-6M Naloxone. 1 Binding to K sites (Magnan J., 1982)
The binding to the K-sites is performed using 3H-Ethyl Ketocyclazocine, a non-selective benzomorphan compound which binds to μ, δ and K-sites, in the presence of 100nM of unlabelled DAGO and 100nM of the enkephalin analogue [DAla^2 -DLeu^5 ]Enkephalin (DADLE), to prevent μ and δ binding respectively.
Final homogenate with solutions of the cold ligand and of the labelled ligand is incubated for 40 min. at 25° C., filtered through Whatman GF/C glass filter discs and washed.
The radioactivity bound to the filters is counted by liquid scintillation spectrophotometry.
The non-specific binding is determined in the presence of 500nM of the benzomorphan non-selective compound Mr 2266.
The equilibrium dissociation constant (KD) and the maximum binding capacity (Bmax) are determined from the analysis of saturation curves, while the inhibition constant (Ki) is determined from the analysis of competition experiments (Hill 1910; Scatchard 1949; Cheng and Prusoff 1973; Gillan et al. 1980).

Where [5] appears, read: fresh guinea pig brain homogenate, 25° C., 40 min, read-out: OPIATE RECEPTORS BINDING MU Ki.
The mark [6] stands for this setting: read-out: OPIATE RECEPTORS BINDING MU Ki, fresh guinea pig brain homogenate, 25° C., 40 min.

T2 sequence (P41144 whole entry): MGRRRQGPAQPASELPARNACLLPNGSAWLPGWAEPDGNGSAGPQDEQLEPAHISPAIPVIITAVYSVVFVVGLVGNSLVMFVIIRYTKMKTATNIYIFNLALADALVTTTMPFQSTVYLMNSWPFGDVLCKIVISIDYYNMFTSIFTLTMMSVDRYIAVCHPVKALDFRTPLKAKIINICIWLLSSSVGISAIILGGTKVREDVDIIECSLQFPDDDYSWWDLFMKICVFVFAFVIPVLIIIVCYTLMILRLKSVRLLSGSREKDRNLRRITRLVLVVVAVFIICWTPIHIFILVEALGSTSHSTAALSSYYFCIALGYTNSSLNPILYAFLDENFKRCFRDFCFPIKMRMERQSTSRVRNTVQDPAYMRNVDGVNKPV

By ED50 is commonly meant the dose at which the effect has come halfway, by size or by number of responders. Broadly, the Ki is a measure of affinity in units of concentration, obtained from inhibition or displacement. In the case of `CSc1cccc2c1CCN(C(=O)Cc1ccc(Cl)c(Cl)c1)C2CN1CCCC1` (stereo not shown) [Example 32, 1-(pyrrolidin-1-yl)methyl-2-(3,4-dichlorophenyl)acetyl-5-methylthio-1,2,3,4-tetrahydroisoquinoline hydrochloride], the ED50 is 0.202 mg/kg in experiment [1] and 0.365 mg/kg in experiment [2]. For the same compound, the Ki in experiment [3] (setting [5]) was 442 nM.
`COc1cccc2c1CCN(C(=O)Cc1ccc(C(F)(F)F)cc1)C2CN1CCCC1` (stereo not shown) [Example 33, 1-(pyrrolidin-1-yl)methyl-2-(4-trifluoromethylphenyl)acetyl5-methoxy-1,2,3,4-tetrahydroisoquinoline hydrochloride]: the ED50 in experiment [1] was 0.06 mg/kg; in experiment [2], 0.306 mg/kg. In addition, in experiment [3] (setting [5]), the Ki turned out to be 142 nM.
Consider `CC1CN(C(=O)Cc2ccc(Cl)c(Cl)c2)C(CN2CCCC2)c2ccccc21` (single isomer, unassigned) [Example 44, (-)-1-(pyrrolidin-1-yl)methyl-2-(3,4-dichlorophenyl)acetyl-4-methyl-1,2,3,4-tetrahydroisoquinoline D(-) tartrate], for which the ED50 in experiment [1] is 0.013 mg/kg; in experiment [2] it was 0.025 mg/kg. Besides, the Ki in experiment [3] (setting [6]) worked out at 56.5 nM.
For the compound `CC1c2ccccc2C(CN2CCCC2)N(C(=O)Cc2ccc(Cl)c(Cl)c2)C1C` (single isomer, unassigned; diastereoisomer c) [Example 47, 1-(pyrrolidin-1-yl)methyl-2-(3,4-dichlorophenyl)acetyl-3,4-dimethyl-1,2,3,4-tetrahydroisoquinoline hydrochloride diastereoisomer C], the “MOUSE TAIL-FLICK ED50” value in experiment [2] is 8.9 mg/kg.
Regarding `CC(=O)Oc1cccc2c1CCN(C(=O)Cc1ccc(Cl)c(Cl)c1)C2CN1CCCC1` (stereo not shown) [Example 52, 1-(pyrrolidin-1-yl)methyl-2-(3,4-dichlorophenyl)acetyl-5-acetoxy-1,2,3,4-tetrahydroisoquinoline hydrochloride], the results for the ED50 in experiment [1] and in experiment [2] were 0.005 mg/kg and 0.024 mg/kg, respectively.
Take `O=C(Cc1ccc(C(F)(F)F)cc1)N1CCc2c(O)cccc2C1CN1CCCCC1` (stereo not shown) [Example 37, 1-(piperidin-1-yl)methyl-2-(4-trifluoromethylphenyl)acetyl5-hydroxy-1,2,3,4-tetrahydroisoquinoline hydrochloride]: the ED50 in experiment [1] was 0.0013 mg/kg; in experiment [2] it was 0.007 mg/kg. The Ki in experiment [3] (setting [6]) amounted to 5.38 nM.
With `O=C(Cc1ccc(Cl)c(Cl)c1)N1CC(c2ccccc2)c2ccccc2C1CN1CCCC1` (single isomer, unassigned; diastereoisomer b) [Example 50, 1-(pyrrolidin-1-yl)methyl-2-(3,4-dichlorophenyl)acetyl-4-phenyl-1,2,3,4-tetrahydroisoquinoline hydrochloride monohydrate diastereoisomer B], in experiment [2], the ED50 is 20 mg/kg.
Take `O=C(Cc1ccc(Cl)c(Cl)c1)N1CCc2c(O)cccc2C1CN1CCCCC1` (stereo not shown) [Example 38, 1-(piperidin-1-yl)methyl-2-(3,4-dichlorophenyl)acetyl-5-hydroxy-1,2,3,4-tetrahydroisoquinoline hydrochloride]: the ED50 in experiment [1] is 0.004 mg/kg; in experiment [2], 0.01 mg/kg. Besides, the Ki in experiment [3] (setting [6]) amounted to 11.4 nM.
For `O=C(Cc1ccc(C(F)(F)F)cc1)N1CCc2c(O)cccc2C1CN1CCCC1` (stereo not shown) [Example 34, 1-(pyrrolidin-1-yl)methyl-2-(4-trifluoromethylphenyl)acetyl5-hydroxy-1,2,3,4-tetrahydroisoquinoline hydrochloride hemihydrate], the ED50 in experiment [1] was 0.0023 mg/kg; in experiment [2] it was 0.011 mg/kg. In addition, in experiment [3] (setting [6]), the inhibition constant (Ki) is 0.59 nM.
`C[C@H]1Cc2ccccc2[C@H](CN2CCCC2)N1C(=O)Cc1ccc(Cl)c(Cl)c1` (relative stereo) [Example 2, 1-(pyrrolidin-1-yl)methyl-2-(3,4-dichlorophenyl)acetyl-3-methyl-1,2,3,4-tetrahydroisoquinoline hydrochloride hemihydrate acetone. Diastereoisomer TRANS]: the ED50 in experiment [2] was more than 1 mg/kg. The Ki in experiment [4] was 1 to 50 nM.
With `COc1cccc2c1CCN(C(=O)Cc1ccc(C(F)(F)F)cc1)C2CN1CCCCC1` (stereo not shown) [Example 35, 1-(piperidin-1-yl)methyl-2-(4-trifluoromethylphenyl)acetyl5-methoxy-1,2,3,4-tetrahydroisoquinoline hydrochloride], the 50% effective dose (ED50) in experiment [1] was 0.204 mg/kg; in experiment [2], 0.689 mg/kg. Also, in experiment [3] (setting [5]), the Ki was approximately 1000 nM.
For `O=C(Cc1ccc(Cl)c(Cl)c1)N1CCc2c(O)cccc2C1CN1CCCC1` (single isomer, unassigned; (-)) [Example 54, (-)-1-(pyrrolidin-1-yl)methyl-2-(3,4-dichlorophenyl)acetyl-5-hydroxy-1,2,3,4-tetrahydroisoquinoline hydrochloride], the results for the ED50 in experiment [1] and in experiment [2] were 0.0022 mg/kg and 0.006 mg/kg, respectively.
As for `CC1c2ccccc2C(CN2CCCC2)N(C(=O)Cc2ccc(Cl)c(Cl)c2)C1C` (single isomer, unassigned; diastereoisomer b) [Example 46, 1-(pyrrolidin-1-yl)methyl-2-(3,4-dichlorophenyl)acetyl-3,4-dimethyl-1,2,3,4-tetrahydroisoquinoline diastereoisomer B], in experiment [1], the ED50 is 0.011 mg/kg. Moreover, the “MOUSE TAIL-FLICK ED50” value in experiment [2] is listed as 0.048 mg/kg.
As to `CC1c2ccccc2C(CN2CCCCC2)N(C(=O)Cc2ccc(Cl)c(Cl)c2)C1C` (single isomer, unassigned; diastereoisomer b) [Example 49, 1-(piperidin-1-yl)methyl-2-(3,4-dichlorophenyl)acetyl-3,4-dimethyl-1,2,3,4-tetrahydroisoquinoline diastereoisomer B.], the figures for the ED50 in experiment [1] and in experiment [2] were 0.038 mg/kg and 0.077 mg/kg, respectively.
For `COc1cccc2c1CCN(C(=O)Cc1ccc(Cl)c(Cl)c1)C2CN1CCCCC1` (stereo not shown) [Example 36, 1-(piperidin-1-yl)methyl-2-(3,4-dichlorophenyl)acetyl-5-methoxy-1,2,3,4-tetrahydroisoquinoline hydrochloride], the ED50 is 0.163 mg/kg in experiment [1] and 0.924 mg/kg in experiment [2]. In addition, in experiment [3] (setting [5]), the Ki is approximately 1000 nM.
Turning to `O=C(Cc1ccc(Cl)c(Cl)c1)N1CCc2c(ccc(O)c2O)C1CN1CCCC1` (stereo not shown) [Example 40, 1-(pyrrolidin-1-yl)methyl-2-(3,4-dichlorophenyl)acetyl-5,6-dihydroxy-1,2,3,4-tetrahydroisoquinoline hydrochloride], the ED50 is 0.429 mg/kg in experiment [1] and 0.461 mg/kg in experiment [2]. The Ki in experiment [3] (setting [6]) was 49.2 nM.
For the compound `COc1ccc2c(c1OC)CCN(C(=O)Cc1ccc(Cl)c(Cl)c1)C2CN1CCCC1` (stereo not shown) [Example 39, 1-(pyrrolidin-1-yl)methyl-2-(3,4-dichlorophenyl)acetyl-5,6-dimethoxy-1,2,3,4-tetrahydroisoquinoline hydrochloride], the ED50 in experiment [2] is more than 1 mg/kg.

The record behind these values is patent publication US4954509A, “Isoquinoline derivatives and their use as analgesics” (Dr. Lo. Zambeletti S.p.A., priority 1988, dated 1990).
